Laboratory results published in US5036008A, “Antitumor antibiotic BU-3285T” (Bristol-Myers Company, priority 1990, dated 1991).
Converted amounts (≈) assume the structure as drawn.

Tests used:
C. albicans A9540 = assay: In vitro antifungal activity, serial agar dilution; details: Candida albicans, A9540, 40 h, pH 7
Protocol: (§4) In vitro antifungal activity was determined against various fungi by the serial agar dilution method. Sabouraud dextrose agar (pH 7.0) was used for the experiment. The inoculum size was adjusted to 10^6 CFU/ml. After incubation at 28° C. for 40 hours, the minimum inhibitory concentration (MIC) was examined.

[1] = tested on: Trichophyton mentagrophytes D155; assay: In vitro antifungal activity, serial agar dilution; details: D155, 40 h, pH 7
Protocol: as §4

[2] = tested on: HCT-116 (human colon carcinoma) cells; assay: In vitro cytotoxicity (Table 14); type: cell-based; details: HCT-116, 72 h
Protocol: B16-F10 (murine melanoma), HCT-116 (human colon carcinoma), A549 (human lung carcinoma) and A549/VP29 (an etoposide-resistant subline of A549) were grown in Eagle's MEM (Nissui) supplemented with FCS (fetal calf serum, 10%) and non-essential amino acids (B16-F10), or in McCoy's 5A medium (Gibco) with FCS (10%), essential and non-essential amino acids, vitamins and antibiotics (HCT-116 and both of A549) at 37° C. under a humidified atmosphere in a 5% CO2 incubator. Exponentially growing B16-F10, HCT-116 and A549 cells were harvested, counted and suspended in the culture medium at 1.5×10^4, 3×10^4 and 3×10^4 cells/ml, respectively. After planting 180 μl of cell suspension into wells of a 96-well microtiter plate on day 0, the test materials (20 μl) were added on day 1 and the plates were incubated for 72 hours. The cytotoxic activity was colorimetrically determined at 540 nm after staining viable cells with neutral red solution.

[3] = tested on: DNA biosynthesis in L1210 leukemia cells; assay: Inhibition of macromolecule biosynthesis, DNA (Table 15); type: cell-based, murine; details: at 100 μg/ml, the highest concentration tested
Protocol: (§1) Inhibitory effects of the above compounds on macromolecule (DNA, RNA and protein) biosynthesis were determined in cultured L1210 murine leukemia cells. The cells (5×10^5 cells/ml) were incubated with the test materials at 37° C. for 15 minutes and then further incubated for 60 minutes after the addition of labeled precursor, ^3 H-thymidine, ^14 C-uridine or ^3 H-leucine into the cultured mixture. After washing with chilled 5% trichloroacetic acid solution, the radioactivity incorporated into the acid-insoluble fraction of the cells was determined with a liquid scintillation counter.

Solubility = type: physicochemical
A. flavus FA21436 = assay: In vitro antifungal activity, serial agar dilution; details: Aspergillus flavus, FA21436, 40 h, pH 7
Protocol: as §4

[4] = tested on: Blastomyces dermatidis D40; assay: In vitro antifungal activity, serial agar dilution; details: D40, 40 h, pH 7
Protocol: as §4

[5] = tested on: Petriellidium boydii IF08078; assay: In vitro antifungal activity, serial agar dilution; details: Scedosporium boydii, IF08078, 40 h, pH 7
Protocol: as §4

[6] = tested on: DNA biosynthesis in L1210 leukemia cells; assay: Inhibition of macromolecule biosynthesis, DNA (Table 7); type: cell-based, murine
Protocol: as §1, with “of BU-3285T” for “of the above compounds”, “macromolecule biosynthesis” for “macromolecule”, “protein)” for “protein) biosynthesis”, “the compound” for “the test materials”, “of labelled” for “of labeled”, “determined by” for “determined with”

[7] = tested on: Sporothrix schenckii IF08158; assay: microbe, parasite or virus in culture; details: IF08158, 40 h, pH 7
Protocol: as §4

[8] = tested on: P388 (murine lymphocytic leukemia) cells; assay: In vitro cytotoxicity (Table 6); type: cell-based; details: Mus musculus; P388, 72 hrs, Coulter counter
Protocol: (§2) BU-3285T was tested for in vitro cytotoxicity against several murine and human tumor cell lines and for in vivo antitumor activity in mice. Mitomycin C was used as a reference compound in both in vitro and in vivo experiments. B16-F10 (murine melanoma) and Moser (human colorectal carcinoma) cells were grown to the logarithmic phase in an enriched Eagle minimum essential medium supplemented with fetal calf serum (FCS, 10%) and kanamycin (60 μg/ml); HCT-116 (human colon carcinoma) cells were in McCoy's 5A medium supplemented with FCS (10%), penicillin (100 U/ml) and streptomycin (100 μg/ml); and P388 (murine lymphocytic leukemia) cells and its vincristine-resistant subline (P388/VCR) were in RPMI 1640 medium supplemented with FCS (10%), penicillin (100 U/ml) and streptomycin (100 μg/ml).
(§3) B16-F10, Moser, HCT-116 and P388 cells were harvested and implanted into wells of a 96-well (for B16-F10, Moser and HCT-116 cells) or a 24-well (for P388 cells) tissue culture plate with test materials at the inoculum sizes of 3×10^4, 6 ×10^4, 6×10^4 and 2×10^4 cells/ml, respectively. They were incubated at 37° C. in a humidified atmosphere of 5% CO2 and 95% air for 72 hrs. […] For P388 cells, the number of viable cells was determined by a Coulter counter.

[9] = tested on: HCT-116 (human colon carcinoma) cells; assay: In vitro cytotoxicity (Table 6); type: cell-based; details: HCT-116, 72 hrs, neutral red
Protocol: as §2, §3

[10] = tested on: B16-F10 (murine melanoma) cells; assay: In vitro cytotoxicity (Table 6); type: cell-based; details: Mus musculus; B16-F10, 72 hrs, neutral red
Protocol: as §2, §3

With `CCCCC/C=C/C=C\C=C/C(O)C(C)C(C/C=C/C1OC(=O)C=CC1O)OS(=O)(=O)O` (stereo not drawn) [BU-3285T] the MIC (C. albicans A9540) was 25 µg/mL (≈ 53.1 µM), the MIC [1] was 25 µg/mL (≈ 53.1 µM) and the IC50 [2] was 1.9 µg/mL (≈ 4.04 µM). For the same compound, the “inhibitory effect on DNA synthesis” value [3] was “no significant inhibitory effect”, the solubility in acetone (Solubility; acetone) was “slightly soluble” and the solubility in chloroform (Solubility; chloroform) was “insoluble”. For the same compound, the “solubility in dimethyl sulfoxide” value (Solubility; dimethyl sulfoxide) was “soluble”, the solubility in ethanol (Solubility; ethanol) was “soluble” and the “solubility in ethyl acetate” value (Solubility; ethyl acetate) was “slightly soluble”. The solubility in methanol (Solubility; methanol) was “soluble”, the solubility in n-hexane (Solubility; n-hexane) was “insoluble” and the solubility in water (Solubility; water) was “soluble”. It also gave an MIC (A. flavus FA21436) of 50 µg/mL (≈ 106 µM), an MIC [4] of 12.5 µg/mL (≈ 26.6 µM) and an MIC [5] of 0.8 µg/mL (≈ 1.7 µM). The IC50 ([6]; Mus musculus, L1210, 3H-thymidine, ^14 C-uridine or 3H-leucine precursor, 15 min + 60 min, 37° C., read-out: IC50, DNA synthesis) was > 100 µg/mL, the “inhibitory effect on DNA synthesis” value ([6]; at 100 μg/ml, the highest concentration tested) was “no significant inhibitory effect” and the MIC [7] was 100 µg/mL (≈ 213 µM). For the same compound, the IC50 [8] was 3.8 µg/mL (≈ 8.08 µM), the IC50 [9] was 3.4 µg/mL (≈ 7.23 µM) and the IC50 [10] was 13.3 µg/mL (≈ 28.3 µM).
